Data as given in publication PMC10302231, “Enhancing Cell Penetration Efficiency of Cyclic Oligoarginines Using Rigid Scaffolds” (Pharmaceutics, 2023).
Where a SMILES comes first, the peptide text is derived from it. Bridges are numbered along the chain shown (N, C = ends). The star is where a group is joined. 5FAM = O=C1OC2(c3ccc(O)cc3Oc3cc(O)ccc32)c2ccc(C(=O)*)cc21

Columns and labels:
[1] = test system: EBC-1 human lung squamous cancer cells; assay: Cellular uptake (internalization) of Cf-labelled peptides by flow cytometry; format: cell-based; conditions: 90 min; for internalization compared with octaarginine (in words) / efficacy (internalization) of tetra- versus hexaarginine bicyclic derivative / cellular uptake compared with linear peptide Acyl-Met-(Arg)6-Met-(Gly)4-Lys(Cf): EBC-1 cells, 1, 5, 10 µM; for internalization relative to octaarginine (Cf-Arg8): Cf-labelled peptides at 1, 5, 10 µM, trypsin treatment, flow cytometry fluorescence intensity, mean ± SD
Procedure: The internalization study of fluorophore-labeled peptides was performed on 24-well plates with 10^5 EBC-1 human lung squamous cancer cells (CRL-5889TM) per well. After 24 h incubation at 37 °C, the cells were treated with a serum-free medium as a negative control and with peptides in different concentrations (1, 5, 10 μM). After the incubation, 100 μL trypsin (0.25%) was used for 5–10 min to remove the excess peptides from the membranes and to detach the cells from the plates. By adding 800 µL of HPMI buffer (glucose, NaHCO3, NaCl, HEPES, KCl, MgCl2, CaCl2, Na2HPO4 × 2 H2O) containing 10% fetal bovine serum (FBS), the trypsin activity was stopped, and the cells were transferred to tubes for measurement. The cells were centrifuged at 216× g at 4 °C, and the supernatant was disposed of. The resuspended cells (in 250 μL HPMI) were used to measure their fluorescence intensity by flow cytometer (BDLSR II, BD Bioscience, San Jose, CA, USA). Data were analyzed with FACSDiVa 5.0 software (BD Bioscience, San Jose, CA, USA).
The internalization of peptides was measured by flow cytometry on EBC-1 cells. The carboxyfluorescein-labeled peptides were studied at 1, 5, and 10 μM concentrations. The cells were treated for 90 min at 37 °C.

[2] = test system: EBC-1 cells; assay: Cellular uptake after pretreatment with endocytosis inhibitors, flow cytometry; format: cell-based, human; conditions: peptide 5 μM 90 min 37 °C; for effect of CPZ (clathrin-mediated endocytosis inhibitor) on cellular uptake: CPZ 30 μM pretreatment 30 min
Procedure: In order to study the effect of inhibitors, the peptide conjugates were administered at 5 μM when the cells were pretreated by the inhibitors for 30 min. The cells were then kept at 37 °C for 90 min. Macropinocytosis was inhibited using 5-(N-ethyl-N-isopropyl)amiloride (EIPA), clathrin-mediated endocytosis with chlorpromazine (CPZ), colchicine (Col) to assess the role of microtubules, and methyl-β-cyclodextrin (CyD) for the inhibition of caveolae/lipid-raft-mediated endocytosis.
The CPPs can use several pathways to enter the cell. The dependence of the cellular uptake was measured for each Dabcyl-containing cyclic BBMB peptide using different inhibitors (Figure 7). The 5-(N-ethyl-N-isopropyl)amiloride (EIPA) inhibits macropinocytosis, chlorpromazine (CPZ) inhibits clathrin-mediated endocytosis, and colchicine (COL) was used to inhibit microtubule formation. Finally, methyl-beta-cyclodextrin (CyD) was used to inhibit caveolae-mediated endocytosis.
Figure 7 Effect of endocytosis inhibitors on the cellular uptake of peptides. Before the treatment with the peptide conjugates (5 μM) for 90 min, the EBC-1 cells were pretreated with inhibitors EIPA (50 μM), CPZ (30 μM), CyD (5 mM), and COL (10 mM) for 30 min. Significant difference from the control was measured using Student’s t-test (* p < 0.05). Data represent the mean ± standard deviation (SD).

[3] = Stability measurement in 25% human plasma; format: in vitro ADME; conditions: 25% human plasma (sodium citrate), 37 °C, aliquots at 0, 1 and 24 h, RP-HPLC; preliminary experiment
Procedure: The analysis was carried out based on the details described in Yuchen Hu et al.. The linear (Dabcyl-Met-(Arg)6-Met-(Gly)4-Lys(Cf)) and cyclic (Dabcyl-Cys-(Arg)6-Cys-(Gly)4-Lys(Cf) para BBMB) peptides were incubated with 25% human plasma at 37 °C. An aliquot of the peptide; human plasma mixture was taken at time points 0, 1, and 24 h. The samples were analyzed by RP-HPLC.
The molecular weight of peptides and conjugates was determined with ESI-MS using Bruker Amazon SL (Germany). The samples were dissolved in water-acetonitrile solution (50:50) with 0.1% formic acid. The samples were directly injected with a syringe pump.
Parameters: capillary voltage: 4 kV, nebulizer gas: 10 psi, dry gas: 4 L/min, heated capillary temperature: 250 °C.
EBC-1 human lung squamous cancer cells (CRL-5889TM) were used for the in vitro analysis. These cells were a generous gift of Prof. […]
Analytical RP-HPLC was performed on Exformma (Exformma Technology (ASIA) Co., Ltd, Hong Kong, China) HPLC system. […] Linear gradient elution (0 min 0% B; 2 min 0% B; 22 min 90% B) was used with eluent A (0.1% TFA in water) and eluent B (0.1% TFA in acetonitrile-water (80:20, v/v)) at 1mL/min flowrate, the peaks were detected at λ= 220 nm for both analytical and preparative RP-HPLC. […]
Samples were taken in 0, 1 and 24 hour time periods and measured with analytical HPLC. […]

Compound: Dabcyl-Cys-(Arg)4-Cys-(Arg)4-Cys-Lys(Cf) TBMB (bicyclic or more) [Dabcyl bicyclic octaarginine peptide on TBMB scaffold]
- internalization compared with octaarginine (in words) ([1]; 37 °C, flow cytometry): better internalization
- internalization relative to octaarginine (Cf-Arg8) ([1]; EBC-1 cells, 37 °C): 3 fold

Compound: Dabcyl-Cys((Arg)6-Cys)-(Gly)4-Lys(Cf) (disulfide) [Dabcyl cyclic peptide with disulfide bond, Cf-labelled]
- internalization compared with octaarginine (in words) ([1]; 37 °C, flow cytometry): still better
- internalization relative to octaarginine (Cf-Arg8) ([1]; EBC-1 cells, 37 °C): 1.5–2 fold

Compound: Acyl-Cys-(Arg)3-Cys-(Arg)3-Cys-Lys(Cf) TBMB (bicyclic or more) [acylated bicyclic hexaarginine peptide on TBMB scaffold]
- efficacy (internalization) of tetra- versus hexaarginine bicyclic derivative ([1]; flow cytometry): no difference

Compound: Dabcyl-Cys-(Arg)6-Cys-(Gly)4-Lys(Cf) para BBMB (sidechain bridge or staple) [Dabcyl cyclic peptide, para BBMB, hexaarginine in the cycle]
- effect of CPZ (clathrin-mediated endocytosis inhibitor) on cellular uptake [2]: inhibits
- stability in 25% human plasma [3]: stable
- toxicity in the uptake experiment ([1]; EBC-1 cells, 10 µM, 37 °C): showed toxicity
- internalization relative to octaarginine (Cf-Arg8) ([1]; EBC-1 cells, 37 °C): 5 fold

Compound: Dabcyl-Cys-(Arg)6-Cys-(Gly)4-Lys(Cf) orto BBMB (sidechain bridge or staple) [Dabcyl cyclic peptide, orto BBMB, hexaarginine in the cycle]
- effect of CPZ (clathrin-mediated endocytosis inhibitor) on cellular uptake [2]: inhibits
- internalization relative to octaarginine (Cf-Arg8) ([1]; EBC-1 cells, 37 °C): 5 fold

Compound: Dabcyl-Cys-(Gly)4-Cys-(Arg)6-Lys(Cf) orto BBMB (sidechain bridge or staple) [Dabcyl cyclic peptide, thioether bonds to orto BBMB, hexaarginine at C-terminus]
- effect of EIPA (macropinocytosis inhibitor) on cellular uptake ([2]; EIPA 50 μM pretreatment 30 min, Student's t-test p < 0.05): did not have an effect

Compound: CC(=O)N[C@H]1CSSC[C@@H](C(=O)NCC(=O)NCC(=O)NCC(=O)NCC(=O)N[C@@H](CCCCNC(=O)c2ccc3c(c2)C(=O)OC32c3ccc(O)cc3Oc3cc(O)ccc32)C(N)=O)NC(=O)[C@H](CCCNC(=N)N)NC(=O)[C@H](CCCNC(=N)N)NC(=O)[C@H](CCCNC(=N)N)NC(=O)[C@H](CCCNC(=N)N)NC(=O)[C@H](CCCNC(=N)N)NC(=O)[C@H](CCCNC(=N)N)NC1=O [Acyl-Cys((Arg)6-Cys)-(Gly)4-Lys(Cf)] (Ac-CRRRRRRCGGGGK(5FAM)-NH2; disulfide 1-8)
- efficiency of cellular uptake compared with octaarginine at 5 µM ([1]; EBC-1 cells, 5 µM, 37 °C, flow cytometry): the same
- efficiency of cellular uptake compared with octaarginine at 10 µM ([1]; EBC-1 cells, 10 µM, 37 °C, flow cytometry): almost half
- cellular uptake compared with linear peptide Acyl-Met-(Arg)6-Met-(Gly)4-Lys(Cf) ([1]; 37 °C, flow cytometry): better cellular uptake
- cellular uptake compared with linear peptide Acyl-Met-(Arg)6-Met-(Gly)4-Lys(Cf) ([1]; 37 °C, flow cytometry, listed as Acyl-Cys-(Arg)6-Cys-(Gly)4-Lys(Cf)): did increase the internalization

Compound: Acyl-Cys-(Arg)2-Cys-(Arg)2-Cys-Lys(Cf) TBMB (bicyclic or more) [acylated bicyclic tetraarginine peptide on TBMB scaffold]
- efficacy (internalization) of tetra- versus hexaarginine bicyclic derivative ([1]; flow cytometry): no difference

Compound: Dabcyl-(Arg)6-Cys-(Gly)4-Cys-Lys(Cf) para BBMB (sidechain bridge or staple) [Dabcyl cyclic peptide, para BBMB, hexaarginine at N-terminus]
- effect of CPZ (clathrin-mediated endocytosis inhibitor) on cellular uptake [2]: inhibits

Compound: Dabcyl-(Arg)6-Cys-(Gly)4-Cys-Lys(Cf) orto BBMB (sidechain bridge or staple) [Dabcyl cyclic peptide, orto BBMB, hexaarginine at N-terminus]
- effect of CPZ (clathrin-mediated endocytosis inhibitor) on cellular uptake [2]: inhibits
